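Grown in 96-well plates, cells were treated for 48 hours with each compound at five concentrations. Insufficient inhibition: endpoint recorded as highest concentration tested. GI50: concentration for 50% inhibition of growth.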 Calls of active or inactive are those of the source. Cut-off read from the data, not from the text of the source: active = GI50 up to about 1.1 µM and inactive = higher. Where a SMILES comes first, the peptide text is derived from it. Bridges are numbered along the chain shown (N, C = ends). [ ]: non-standard residue; d: D form. The star is where a group is joined. ξ: configuration not given here. PhAc = O=C(Cc1ccccc1)*; ξP = O=C(O)C1CCCN1
Key:
Test in all cases: NCI-60 cell line screen, 48 h
M14 = tested on: M14
IGROV-1 = tested on: IGROV-1
SK-MEL-5 = tested on: SK-MEL-5
OVCAR-4 = tested on: OVCAR-4
CAKI-1 = tested on: CAKI-1
MOLT-4 = tested on: MOLT-4
U-251 = tested on: U-251
EKVX = tested on: EKVX
SN12C = tested on: SN12C
786-0 = tested on: 786-0
A498 = tested on: A498
NCI-H460 = tested on: NCI-H460
COLO 205 = tested on: COLO 205
Hs-578T = tested on: Hs-578T
MCF7 = tested on: MCF7
KM12 = tested on: KM12
HOP-92 = tested on: HOP-92
PC-3 = tested on: PC-3
HOP-62 = tested on: HOP-62

Compound	GI50 (M14)	GI50 (IGROV-1)	GI50 (SK-MEL-5)	GI50 (OVCAR-4)	GI50 (CAKI-1)	GI50 (MOLT-4)	GI50 (U-251)	GI50 (EKVX)	GI50 (SN12C)	GI50 (786-0)	GI50 (A498)	GI50 (NCI-H460)	GI50 (COLO 205)	GI50 (Hs-578T)	GI50 (MCF7)	GI50 (KM12)	GI50 (HOP-92)	GI50 (PC-3)	GI50 (HOP-62)
C/C(=N\N=C(N)N)c1c(C(=O)OCCCCCCOC(=O)c2nc3sccn3c2/C(C)=N/N=C(N)N)nc2sccn12	> 100 µM (inactive)	> 100 µM (inactive)	99.1 µM (inactive)	> 100 µM (inactive)	> 100 µM (inactive)	32.2 µM (inactive)	37.7 µM (inactive)	> 100 µM (inactive)	> 100 µM (inactive)	41.9 µM (inactive)	> 100 µM (inactive)	> 100 µM (inactive)	> 100 µM (inactive)	> 100 µM (inactive)	47.4 µM (inactive)	> 100 µM (inactive)	> 100 µM (inactive)	> 100 µM (inactive)	–
CC(C)(C)OC(=O)C1/C(=C/CO)CN1C(=O)OC(C)(C)C (stereo not given)	> 100 µM (inactive)	> 100 µM (inactive)	> 100 µM (inactive)	63.7 µM (inactive)	> 100 µM (inactive)	57.3 µM (inactive)	–	> 100 µM (inactive)	> 100 µM (inactive)	> 100 µM (inactive)	> 100 µM (inactive)	> 100 µM (inactive)	> 100 µM (inactive)	> 100 µM (inactive)	> 100 µM (inactive)	–	> 100 µM (inactive)	> 100 µM (inactive)	> 100 µM (inactive)
CC1OC(OC2C(OC3CCC4(C)C(CCC5(C)C4CC=C4C6CC(C)(C)CCC6(C(=O)O)CCC45C)C3(C)CO)OCC(O)C2O)C(O)C(O)C1O (stereo not given)	–	15.6 µM (inactive)	17.8 µM (inactive)	11.8 µM (inactive)	18.5 µM (inactive)	14.6 µM (inactive)	21.9 µM (inactive)	20.4 µM (inactive)	21.1 µM (inactive)	30.7 µM (inactive)	14.2 µM (inactive)	19 µM (inactive)	20.8 µM (inactive)	14.1 µM (inactive)	0.46 µM (active)	7.1 µM (inactive)	10.1 µM (inactive)	13 µM (inactive)	29.6 µM (inactive)
O=C(Cc1ccccc1)N[C@@H]1COC(=O)C2CCCN2C(=O)[C@@H]2CCCN2C1=O (stereo not given in full) (PhAc-[dS]-Pro-[ξP]; ester 1-C)	> 100 µM (inactive)	> 100 µM (inactive)	> 100 µM (inactive)	> 100 µM (inactive)	> 100 µM (inactive)	> 100 µM (inactive)	–	> 100 µM (inactive)	> 100 µM (inactive)	> 100 µM (inactive)	> 100 µM (inactive)	> 100 µM (inactive)	> 100 µM (inactive)	> 100 µM (inactive)	> 100 µM (inactive)	> 100 µM (inactive)	> 100 µM (inactive)	> 100 µM (inactive)	> 100 µM (inactive)
O=C(CCc1ccc(O)c(O)c1)NCCc1ccc(O)c(O)c1	> 100 µM (inactive)	> 100 µM (inactive)	> 100 µM (inactive)	18.5 µM (inactive)	–	57.7 µM (inactive)	17.3 µM (inactive)	> 100 µM (inactive)	37.1 µM (inactive)	18.6 µM (inactive)	> 100 µM (inactive)	> 100 µM (inactive)	> 100 µM (inactive)	> 100 µM (inactive)	27.8 µM (inactive)	> 100 µM (inactive)	> 100 µM (inactive)	> 100 µM (inactive)	> 100 µM (inactive)
COc1cc(C2c3[nH]c4ccccc4c3C[C@H]3COC(=O)N23)cc(OC)c1OC (stereo not given in full)	0.0611 µM (active)	–	0.0266 µM (active)	1.55 µM (inactive)	0.885 µM (active)	0.0966 µM (active)	0.0445 µM (active)	< 0.01 µM (active)	0.163 µM (active)	0.0304 µM (active)	0.0745 µM (active)	0.055 µM (active)	0.0687 µM (active)	0.0219 µM (active)	0.0406 µM (active)	0.0552 µM (active)	0.92 µM (active)	0.0411 µM (active)	0.0467 µM (active)
NNC(=O)c1c(Cl)c(Cl)c(Cl)c(Cl)c1-c1nc2ccccc2[nH]1	9.55 µM (inactive)	1.18 µM (inactive)	11.2 µM (inactive)	–	13.2 µM (inactive)	4.66 µM (inactive)	–	12.4 µM (inactive)	27 µM (inactive)	18.5 µM (inactive)	15 µM (inactive)	11.8 µM (inactive)	16.4 µM (inactive)	18.1 µM (inactive)	2.96 µM (inactive)	6.76 µM (inactive)	18.5 µM (inactive)	16.6 µM (inactive)	4.29 µM (inactive)
C=[N+](CNC(=O)CNC(=O)C(Cc1ccccc1)NC(=O)OC(C)(C)C)C(=O)CNC(=O)C(Cc1ccccc1)NC(=O)OC(C)(C)C (stereo not given)	> 100 µM (inactive)	> 100 µM (inactive)	> 100 µM (inactive)	> 100 µM (inactive)	> 100 µM (inactive)	> 100 µM (inactive)	–	> 100 µM (inactive)	> 100 µM (inactive)	> 100 µM (inactive)	> 100 µM (inactive)	> 100 µM (inactive)	> 100 µM (inactive)	> 100 µM (inactive)	> 100 µM (inactive)	> 100 µM (inactive)	> 100 µM (inactive)	> 100 µM (inactive)	> 100 µM (inactive)
CC(NC(=O)OC(C)(C)C)C(=O)C(N)=O (stereo not given)	> 100 µM (inactive)	–	> 100 µM (inactive)	–	–	> 100 µM (inactive)	> 100 µM (inactive)	> 100 µM (inactive)	> 100 µM (inactive)	> 100 µM (inactive)	> 100 µM (inactive)	> 100 µM (inactive)	> 100 µM (inactive)	> 100 µM (inactive)	> 100 µM (inactive)	–	> 100 µM (inactive)	> 100 µM (inactive)	> 100 µM (inactive)
Nn1c(Nc2ccc(S(=O)(=O)Nc3ncccn3)cc2)nnc(/C=C/c2c(O)ccc3ccccc23)c1=O	29 µM (inactive)	27.5 µM (inactive)	–	24.5 µM (inactive)	26.7 µM (inactive)	> 100 µM (inactive)	31.9 µM (inactive)	24.2 µM (inactive)	28.3 µM (inactive)	26.6 µM (inactive)	25.2 µM (inactive)	23.3 µM (inactive)	–	48.4 µM (inactive)	21.6 µM (inactive)	–	66.2 µM (inactive)	27.7 µM (inactive)	33.6 µM (inactive)
COC(=O)C(CCCCN)NC(=O)C(CCCCN)NC(C)=O.Cc1ccc(C(=O)Nc2ccc(S(=O)(=O)O)c3cc(S(=O)(=O)O)cc(S(=O)(=O)O)c23)cc1NC(=O)c1cccc(NC(=O)Nc2cccc(C(=O)Nc3cc(C(=O)Nc4ccc(S(=O)(=O)O)c5cc(S(=O)(=O)O)cc(S(=O)(=O)O)c45)ccc3C)c2)c1	10.6 µM (inactive)	> 50 µM (inactive)	> 50 µM (inactive)	8.73 µM (inactive)	> 50 µM (inactive)	> 50 µM (inactive)	> 50 µM (inactive)	> 50 µM (inactive)	> 50 µM (inactive)	> 50 µM (inactive)	> 50 µM (inactive)	> 50 µM (inactive)	> 50 µM (inactive)	39.1 µM (inactive)	> 50 µM (inactive)	> 50 µM (inactive)	> 50 µM (inactive)	> 50 µM (inactive)	–
C[C@]12CCC(O)CC1=CC[C@@H]1[C@@H]2CC[C@]2(C)C(O)[C@H](n3ccnc3)C[C@@H]12 (stereo not given in full)	> 100 µM (inactive)	> 100 µM (inactive)	28.1 µM (inactive)	> 100 µM (inactive)	> 100 µM (inactive)	17.4 µM (inactive)	52 µM (inactive)	> 100 µM (inactive)	> 100 µM (inactive)	> 100 µM (inactive)	> 100 µM (inactive)	24.8 µM (inactive)	47.4 µM (inactive)	> 100 µM (inactive)	51.4 µM (inactive)	56.2 µM (inactive)	20.2 µM (inactive)	41.5 µM (inactive)	–
Cc1ccc2c(sc(-c3ccc4c(c3)sc(-c3ccc(N(C)C)cc3)[n+]4C)[n+]2C)c1S(=O)(=O)O.Cc1ccc2c(sc(-c3ccc4c(c3)sc(-c3ccc5c(c3)sc(-c3ccc(N(C)C)cc3)[n+]5C)[n+]4C)[n+]2C)c1S(=O)(=O)O	> 100 µM (inactive)	9.79 µM (inactive)	> 100 µM (inactive)	43 µM (inactive)	10 µM (inactive)	51.9 µM (inactive)	> 100 µM (inactive)	76 µM (inactive)	> 100 µM (inactive)	> 100 µM (inactive)	> 100 µM (inactive)	10 µM (inactive)	> 100 µM (inactive)	72.4 µM (inactive)	> 100 µM (inactive)	73.1 µM (inactive)	> 100 µM (inactive)	> 100 µM (inactive)	–
C(=N\c1cc2cc(Sc3ccccc3)ccc2[nH]1)/c1ccccc1	> 12.5 µM (inactive)	–	10.6 µM (inactive)	> 12.5 µM (inactive)	> 12.5 µM (inactive)	> 12.5 µM (inactive)	–	> 12.5 µM (inactive)	> 12.5 µM (inactive)	> 12.5 µM (inactive)	1.83 µM (inactive)	–	–	> 12.5 µM (inactive)	> 12.5 µM (inactive)	0.0931 µM (active)	> 12.5 µM (inactive)	> 12.5 µM (inactive)	2.08 µM (inactive)
CC1(O)CC23CC(O)C4(O)C(CC(O)C4(C)C)C(C)(O)C2CCC1C3O (stereo not given)	> 100 µM (inactive)	> 100 µM (inactive)	> 100 µM (inactive)	> 100 µM (inactive)	> 100 µM (inactive)	> 100 µM (inactive)	> 100 µM (inactive)	> 100 µM (inactive)	> 100 µM (inactive)	> 100 µM (inactive)	> 100 µM (inactive)	> 100 µM (inactive)	> 100 µM (inactive)	> 100 µM (inactive)	> 100 µM (inactive)	> 100 µM (inactive)	> 100 µM (inactive)	> 100 µM (inactive)	–

— ChEMBL document CHEMBL1201862, “PubChem BioAssay data set” (2004)
